≈ marks a conversion by molar mass, not a printed value.
Columns and labels:
GTPase KRas [1] = target: T1, GTPase KRas (Homo sapiens, UniProt P01116); test: Inhibition of K-Ras in human NCI-H460 cells; assay type: cell-based
Methionine synthase = Methionine synthase (Homo sapiens, UniProt Q99707); test: Inhibition of MTR (unknown origin)
HepG2 = test: cells; details: Homo sapiens, HepG2, read-out: ED50
[2] = target: Cystic fibrosis transmembrane conductance regulator (Homo sapiens, UniProt P13569, F508DEL)
[3] = tested on: Mycobacterium tuberculosis; test: microbe, parasite or virus in culture
[4] = tested on: Mycobacterium tuberculosis; test: microbe, parasite or virus in culture; remark: listed apart in the source
[5] = target: Isocitrate dehydrogenase [NADP], mitochondrial (Homo sapiens, UniProt P48735); test: Inhibition of IDH2 (unknown origin)
HCT-116 = test: Antiproliferative activity against human HCT-116 cells assessed as inhibition of cell growth; assay type: functional, cell-based
Exportin-1 [6] = target: T2, Exportin-1 (Homo sapiens, UniProt O14980); test: Inhibition of XPO1 in human MOLT-16 cells; assay type: cell-based
Exportin-1 [7] = target: T2, Exportin-1; test: Inhibition of XPO1 in human HPBALL cells; assay type: cell-based
SW-620 = test: cells; details: Homo sapiens
Brain = test: Neuroprotective activity in Wistar rat brain homogenate assessed as inhibition of lipid peroxidation incubated for 10 mins by fluorometric analysis; assay type: functional, tissue-based
Malme-3M = test: Antiproliferative activity against human Malme-3M cells assessed as inhibition of cell growth; assay type: functional, cell-based
[8] = Inhibition of wild type FTase (unknown origin); set-up: species or system Homo sapiens
GTPase HRas = GTPase HRas (Homo sapiens, UniProt P01112); test: Inhibition of H-Ras (unknown origin)
GTPase KRas [9] = target: T1, GTPase KRas; test: Inhibition of K-Ras (unknown origin)
Human betaherpesvirus 5 = test: Antiviral activity against HCMV infected in human NHDF cells assessed as reduction in virus plaque formation; assay type: functional, organism-based; details: Human betaherpesvirus 5, NHDF
[10] = target: Soluble guanylate cyclase (Homo sapiens) (UniProt Q02153+O75343+P33402+Q02108); test: Stimulation of recombinant sGC (unknown origin) expressed in CHO cells assessed as formation of cGMP; assay type: cell-based; details: filed as activator
Aorta = test: Relaxation of pre-contracted rabbit aorta; assay type: functional, tissue-based; details: Oryctolagus cuniculus
RS4-11 = test: Antiproliferative activity against human RS4-11 cells assessed as […]; assay type: functional, cell-based
[11] = target: Hepatocyte growth factor receptor (Homo sapiens, UniProt P08581); test: Inhibition of c-Met (unknown origin)
K562 = test: Antiproliferative activity against human K562 cells assessed as inhibition of cell growth; assay type: functional, cell-based
[12] = Cytotoxicity against human HBE cells assessed as inhibition of cell growth; assay type: toxicity, cell-based
Melanocortin receptor 4 = Melanocortin receptor 4 (Rattus norvegicus, UniProt P70596); test: Inhibition of rat MC4R
RBL-2H3 = test: Antiproliferative activity against rat RBL-2H3 cells assessed as […]; assay type: functional, cell-based
cells = details: Homo sapiens, HAC15, 72 h

T2 sequence (O14980 whole entry): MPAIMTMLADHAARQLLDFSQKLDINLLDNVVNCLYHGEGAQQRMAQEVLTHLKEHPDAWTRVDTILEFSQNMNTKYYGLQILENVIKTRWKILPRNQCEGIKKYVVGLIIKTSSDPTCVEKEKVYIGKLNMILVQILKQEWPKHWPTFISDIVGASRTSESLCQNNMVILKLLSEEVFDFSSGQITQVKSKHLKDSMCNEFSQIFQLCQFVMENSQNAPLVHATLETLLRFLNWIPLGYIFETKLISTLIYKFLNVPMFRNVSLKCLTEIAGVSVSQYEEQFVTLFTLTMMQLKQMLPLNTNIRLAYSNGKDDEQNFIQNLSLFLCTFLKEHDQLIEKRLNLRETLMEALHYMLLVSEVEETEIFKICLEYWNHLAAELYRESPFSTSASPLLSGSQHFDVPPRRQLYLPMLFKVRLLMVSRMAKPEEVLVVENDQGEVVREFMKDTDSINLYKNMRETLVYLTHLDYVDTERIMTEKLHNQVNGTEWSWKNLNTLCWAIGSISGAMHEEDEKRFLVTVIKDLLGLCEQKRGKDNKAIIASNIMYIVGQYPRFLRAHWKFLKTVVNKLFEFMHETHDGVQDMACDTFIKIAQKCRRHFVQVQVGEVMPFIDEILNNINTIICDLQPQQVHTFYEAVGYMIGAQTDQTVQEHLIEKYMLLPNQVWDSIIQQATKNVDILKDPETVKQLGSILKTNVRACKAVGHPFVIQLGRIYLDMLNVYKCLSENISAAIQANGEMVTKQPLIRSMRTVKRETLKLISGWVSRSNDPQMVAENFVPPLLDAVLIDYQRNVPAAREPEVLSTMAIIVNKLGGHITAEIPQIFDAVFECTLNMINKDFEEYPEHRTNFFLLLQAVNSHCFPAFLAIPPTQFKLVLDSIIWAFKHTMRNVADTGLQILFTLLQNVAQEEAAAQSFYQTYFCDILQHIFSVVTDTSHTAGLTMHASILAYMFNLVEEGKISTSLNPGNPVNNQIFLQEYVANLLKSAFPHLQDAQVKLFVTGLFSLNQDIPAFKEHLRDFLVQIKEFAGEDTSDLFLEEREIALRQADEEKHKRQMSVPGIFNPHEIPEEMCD
Sequence of Methionine synthase (Q99707 whole entry): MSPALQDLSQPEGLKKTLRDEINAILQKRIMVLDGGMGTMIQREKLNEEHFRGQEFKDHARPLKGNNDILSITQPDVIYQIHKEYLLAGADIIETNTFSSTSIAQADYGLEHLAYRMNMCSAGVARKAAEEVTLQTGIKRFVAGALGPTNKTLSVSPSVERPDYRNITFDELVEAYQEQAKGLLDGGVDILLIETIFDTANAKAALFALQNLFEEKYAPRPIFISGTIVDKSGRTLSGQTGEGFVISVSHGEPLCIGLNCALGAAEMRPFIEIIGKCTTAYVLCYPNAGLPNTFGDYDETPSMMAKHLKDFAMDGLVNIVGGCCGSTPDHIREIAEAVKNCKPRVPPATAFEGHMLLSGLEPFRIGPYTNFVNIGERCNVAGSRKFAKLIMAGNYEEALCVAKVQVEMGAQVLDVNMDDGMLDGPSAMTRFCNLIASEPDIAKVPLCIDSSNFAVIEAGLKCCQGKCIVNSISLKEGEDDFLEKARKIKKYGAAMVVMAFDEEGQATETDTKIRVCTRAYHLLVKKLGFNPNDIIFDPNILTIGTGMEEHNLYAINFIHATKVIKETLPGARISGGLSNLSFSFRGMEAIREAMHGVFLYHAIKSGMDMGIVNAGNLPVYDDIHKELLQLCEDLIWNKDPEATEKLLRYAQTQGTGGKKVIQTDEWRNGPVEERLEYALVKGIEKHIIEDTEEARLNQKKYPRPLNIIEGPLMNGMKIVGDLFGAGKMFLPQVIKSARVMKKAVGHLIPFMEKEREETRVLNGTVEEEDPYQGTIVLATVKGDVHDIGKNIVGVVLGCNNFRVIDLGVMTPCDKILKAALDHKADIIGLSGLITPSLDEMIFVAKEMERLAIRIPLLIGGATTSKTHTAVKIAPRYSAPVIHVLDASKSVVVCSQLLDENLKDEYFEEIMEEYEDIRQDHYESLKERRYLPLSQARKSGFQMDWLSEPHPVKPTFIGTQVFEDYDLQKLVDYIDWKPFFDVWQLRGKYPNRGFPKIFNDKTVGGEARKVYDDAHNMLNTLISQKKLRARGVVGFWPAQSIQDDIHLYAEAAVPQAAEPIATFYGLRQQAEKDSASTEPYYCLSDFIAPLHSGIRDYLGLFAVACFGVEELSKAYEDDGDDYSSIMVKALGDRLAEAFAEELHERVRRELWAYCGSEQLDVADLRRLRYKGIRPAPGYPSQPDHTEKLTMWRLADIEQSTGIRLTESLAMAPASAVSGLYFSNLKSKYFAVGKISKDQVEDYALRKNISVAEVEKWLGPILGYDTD
T1 sequence (P01116 whole entry): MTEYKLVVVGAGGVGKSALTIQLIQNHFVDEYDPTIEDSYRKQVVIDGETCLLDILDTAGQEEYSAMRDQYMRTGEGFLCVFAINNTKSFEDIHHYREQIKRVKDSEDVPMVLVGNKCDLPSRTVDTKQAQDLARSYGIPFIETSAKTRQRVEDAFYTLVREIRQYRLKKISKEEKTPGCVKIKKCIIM
Sequence of Cystic fibrosis transmembrane conductance regulator (P13569 as listed by the source): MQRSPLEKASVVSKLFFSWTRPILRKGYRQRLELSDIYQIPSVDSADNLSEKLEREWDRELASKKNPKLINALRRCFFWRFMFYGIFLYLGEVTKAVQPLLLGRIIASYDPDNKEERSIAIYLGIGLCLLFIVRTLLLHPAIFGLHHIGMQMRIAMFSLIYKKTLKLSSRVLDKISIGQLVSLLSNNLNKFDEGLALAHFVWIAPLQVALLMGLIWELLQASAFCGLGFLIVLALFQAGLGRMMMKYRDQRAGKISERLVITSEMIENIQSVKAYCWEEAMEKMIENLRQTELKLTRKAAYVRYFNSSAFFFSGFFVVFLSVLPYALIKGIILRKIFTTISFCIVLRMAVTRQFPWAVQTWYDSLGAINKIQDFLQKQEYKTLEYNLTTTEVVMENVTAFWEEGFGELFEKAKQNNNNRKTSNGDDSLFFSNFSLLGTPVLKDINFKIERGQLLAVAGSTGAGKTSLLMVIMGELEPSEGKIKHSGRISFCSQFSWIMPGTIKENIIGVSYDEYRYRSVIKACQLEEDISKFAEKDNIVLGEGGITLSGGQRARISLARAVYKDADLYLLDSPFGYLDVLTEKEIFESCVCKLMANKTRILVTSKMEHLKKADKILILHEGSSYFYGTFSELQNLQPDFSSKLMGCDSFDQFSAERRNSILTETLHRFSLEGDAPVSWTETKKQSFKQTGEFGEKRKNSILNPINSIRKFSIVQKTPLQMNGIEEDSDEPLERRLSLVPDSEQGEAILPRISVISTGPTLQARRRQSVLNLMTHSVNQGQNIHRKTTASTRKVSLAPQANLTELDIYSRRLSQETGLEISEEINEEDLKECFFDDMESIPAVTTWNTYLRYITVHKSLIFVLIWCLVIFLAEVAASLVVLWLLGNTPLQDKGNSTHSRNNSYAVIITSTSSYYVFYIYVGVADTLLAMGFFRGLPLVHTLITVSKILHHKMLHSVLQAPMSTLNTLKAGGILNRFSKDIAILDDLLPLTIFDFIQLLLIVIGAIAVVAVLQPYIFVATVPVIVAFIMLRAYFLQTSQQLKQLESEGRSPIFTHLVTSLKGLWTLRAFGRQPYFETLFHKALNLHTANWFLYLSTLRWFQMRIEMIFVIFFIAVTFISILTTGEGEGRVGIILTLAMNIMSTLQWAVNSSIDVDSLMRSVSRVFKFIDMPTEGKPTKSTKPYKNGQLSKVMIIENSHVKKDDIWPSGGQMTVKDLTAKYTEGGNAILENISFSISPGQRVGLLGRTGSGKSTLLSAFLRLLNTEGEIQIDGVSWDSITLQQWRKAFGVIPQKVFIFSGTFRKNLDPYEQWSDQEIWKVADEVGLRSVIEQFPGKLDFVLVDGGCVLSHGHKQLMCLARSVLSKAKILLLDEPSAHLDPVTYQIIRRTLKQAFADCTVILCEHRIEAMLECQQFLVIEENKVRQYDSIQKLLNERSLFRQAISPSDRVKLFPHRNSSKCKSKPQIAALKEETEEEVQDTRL
Sequence of Isocitrate dehydrogenase [NADP], mitochondrial (P48735 whole entry): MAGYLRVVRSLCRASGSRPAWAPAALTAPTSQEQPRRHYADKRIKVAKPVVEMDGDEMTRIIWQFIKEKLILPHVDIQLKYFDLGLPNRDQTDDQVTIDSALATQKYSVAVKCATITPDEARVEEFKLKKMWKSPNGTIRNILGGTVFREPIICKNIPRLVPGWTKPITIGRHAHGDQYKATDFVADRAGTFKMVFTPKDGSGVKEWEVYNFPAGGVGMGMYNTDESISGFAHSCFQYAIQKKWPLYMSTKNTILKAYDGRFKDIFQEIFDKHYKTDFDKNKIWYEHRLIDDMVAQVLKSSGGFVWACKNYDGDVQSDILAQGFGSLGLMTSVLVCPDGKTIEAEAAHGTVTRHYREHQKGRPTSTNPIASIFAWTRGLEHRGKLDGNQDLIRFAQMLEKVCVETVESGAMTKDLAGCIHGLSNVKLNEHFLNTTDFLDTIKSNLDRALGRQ
Sequence of Melanocortin receptor 4 (P70596 whole entry): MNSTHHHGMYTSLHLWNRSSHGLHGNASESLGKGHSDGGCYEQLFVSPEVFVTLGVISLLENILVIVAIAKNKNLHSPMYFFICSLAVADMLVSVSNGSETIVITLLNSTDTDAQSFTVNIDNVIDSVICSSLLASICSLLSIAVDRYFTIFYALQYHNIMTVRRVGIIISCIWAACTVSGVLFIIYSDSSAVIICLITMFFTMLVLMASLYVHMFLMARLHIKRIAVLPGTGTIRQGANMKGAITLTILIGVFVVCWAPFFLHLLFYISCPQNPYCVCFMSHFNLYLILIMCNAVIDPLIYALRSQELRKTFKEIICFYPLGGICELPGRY
Sequence of GTPase HRas (P01112 whole entry): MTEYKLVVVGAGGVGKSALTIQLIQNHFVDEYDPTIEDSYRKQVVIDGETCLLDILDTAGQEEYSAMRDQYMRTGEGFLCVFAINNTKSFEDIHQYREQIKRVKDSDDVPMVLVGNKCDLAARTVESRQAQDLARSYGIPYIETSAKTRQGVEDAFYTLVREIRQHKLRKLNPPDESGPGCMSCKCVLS

NC(=O)N1CCC(CC(=O)N2CCC([C@H]3c4ncc(Br)cc4CCc4cc(Cl)cc(Br)c43)CC2)CC1 [LONAFARNIB]
IC50 (GTPase KRas [1]): 40 nM

O=C1c2ccccc2CN1C1CCN(CCC(c2ccccc2)c2ccccc2)CC1
IC50 (Methionine synthase): 2.2 nM
EC50 (HepG2): 2.2 nM

O=C(c1c[nH]c2ccccc2c1=O)N(Cc1ccccc1)Cc1ccccc1
EC50 [2]: 2.1 nM

NNC(=O)c1ccncc1 [ISONIAZID]
MIC [3]: 0.12 µg/mL (≈ 0.875 µM)
MIC [4]: 0.12 µg/mL (≈ 0.875 µM)

CC(C)(C)Nc1nc(Nc2ccccc2)nc(-c2ccccc2)n1
IC50 [5]: 100 nM
IC50 (HCT-116): 530 nM

COc1cc(-c2ncn(/C=C\C(=O)OC(C)C)n2)cc(C(F)(F)F)c1
IC50 (Exportin-1 [6]): 112 nM
IC50 (Exportin-1 [7]): 16 nM

O=C(c1cc(Cc2n[nH]c(=O)c3ccccc23)ccc1F)N1CCN(C(=O)C2CC2)CC1 [OLAPARIB]
IC50 (SW-620): 6 nM

O=C(NC1CCN(CCCCC2(C(=O)NCC(F)(F)F)c3ccccc3-c3ccccc32)CC1)c1ccccc1-c1ccc(C(F)(F)F)cc1 [LOMITAPIDE]
IC50 (Methionine synthase): 0.5 nM
EC50 (HepG2): 0.8 nM

CC1=NN(c2ccccc2)C(=O)C1 [EDARAVONE]
IC50 (Brain): 18200 nM

Cn1cnc2c(F)c(Nc3ccc(Br)cc3Cl)c(C(=O)NOCCO)cc21 [SELUMETINIB]
IC50 (Malme-3M): 59 nM

COc1nc2ccc(Br)cc2cc1[C@@H](c1ccccc1)[C@@](O)(CCN(C)C)c1cccc2ccccc12 [BEDAQUILINE]
MIC [3]: 0.03 µg/mL (≈ 0.054 µM)
MIC [4]: 0.03 µg/mL (≈ 0.054 µM)

CO[C@H]1/C=C/O[C@@]2(C)Oc3c(C)c(O)c4c(O)c(c(/C=N/N5CCN(C)CC5)c(O)c4c3C2=O)NC(=O)/C(C)=C\C=C\[C@H](C)[C@H](O)[C@@H](C)[C@@H](O)[C@@H](C)[C@H](OC(C)=O)[C@@H]1C [RIFAMPIN]
MIC [3]: 0.5 µg/mL (≈ 0.608 µM)
MIC [4]: 0.5 µg/mL (≈ 0.608 µM)

O=C(Cc1ccncc1)N1CCN([C@H]2c3ccc(Cl)cc3CCc3cccnc32)CC1
IC50 [8]: 490 nM
IC50 (GTPase HRas): 1.9 nM
IC50 (GTPase KRas [9]): 5.2 nM

COc1cccc(N2CCN(C3=Nc4c(F)cccc4[C@H](CC(=O)O)N3c3cc(C(F)(F)F)ccc3OC)CC2)c1 [LETERMOVIR]
EC50 (Human betaherpesvirus 5): 4.5 nM
EC90 (Human betaherpesvirus 5): 6.1 nM

COC(=O)N(C)c1c(N)nc(-c2nn(Cc3ccccc3F)c3ncccc23)nc1N [RIOCIGUAT]
MEC [10]: 0.03 µM
IC50 (Aorta): 120 nM

CC1(C)CCC(c2ccc(Cl)cc2)=C(CN2CCN(c3ccc(C(=O)NS(=O)(=O)c4ccc(NCC5CCOCC5)c([N+](=O)[O-])c4)c(Oc4cnc5[nH]ccc5c4)c3)CC2)C1
EC50 (RS4-11): 8 nM

Cc1[nH]c(/C=C2\C(=O)Nc3ccc(S(=O)(=O)C(C)c4c(Cl)cccc4Cl)cc32)c(C)c1C(=O)N1CCC[C@@H]1CN1CCCC1 (some centres undefined)
IC50 [11]: 9 nM

COC(=O)C[C@](O)(CCCC(C)(C)O)C(=O)O[C@@H]1C(OC)=C[C@]23CCCN2CCc2cc4c(cc2[C@H]13)OCO4 [OMACETAXINE MEPESUCCINATE]
IC50 (K562): 21 nM

CC(C)(C)c1cc(C(C)(C)C)c(NC(=O)c2c[nH]c3ccccc3c2=O)cc1O [IVACAFTOR]
EC50 [12]: 236 nM
EC50 [2]: 25 nM

CC(=O)N[C@@H](CCCNC(=N)N)C(=O)N[C@H]1CSSC[C@@H](C(N)=O)NC(=O)[C@H](Cc2c[nH]c3ccccc23)NC(=O)[C@H](CCCNC(=N)N)NC(=O)[C@@H](Cc2ccccc2)NC(=O)[C@H](Cc2c[nH]cn2)NC(=O)[C@@H](C)NC1=O [SETMELANOTIDE]
EC50 (Melanocortin receptor 4): 0.28 nM

CCOC(=O)[C@@H](N)Cc1ccc(-c2cc(O[C@H](c3ccc(Cl)cc3-n3ccc(C)n3)C(F)(F)F)nc(N)n2)cc1 [TELOTRISTAT ETIPRATE]
IC50 (RBL-2H3): 400 nM

N#Cc1ccc([C@H]2CCc3cncn32)c(F)c1 [OSILODROSTAT]
IC50 (cells): 35 nM
